Results from patent publication US20250338846A1, “COMPOSITIONS HAVING PESTICIDAL UTILITY AND PROCESSES RELATED THERETO” (CORTEVA AGRISCIENCE, LLC, priority 2022, published 2025).

Columns and labels:
Type in all cases: in vivo
[1] = tested on: Diamondback Moth (Plutella xylostella, PLUTMA); test: Bioassay 9: Diamondback Moth, leaves of track-sprayed cabbage plants, mortality and feeding damage scored; settings: F1 alone 40 (10^-5) Wt %
[2] = tested on: Diamondback Moth (Plutella xylostella, PLUTMA); test: as above
[3] = tested on: Diamondback Moth (Plutella xylostella, PLUTMA); test: Bioassay 6: Diamondback Moth, artificial lepidopteran diet, live larvae after 5 days; settings: DBM; F1 alone 0.4 % w/v
Experimental: where X=No. of live nymphs on solvent check and Y=No. of live nymphs on treated bean segments. In Table B5 the “Expected % Control” was calculated using the method described in Colby S. R., Weeds, 1967, 15, 20-22. Bioassay 6: Beet Armyworm (Spodoptera exigua, LAPHEG) (BAW), and Diamondback Moth (Plutella xylostella, PLUTMA) (DBM).
Stock solutions were prepared with Formula One as well as for each of the active ingredients individually. Test solutions were prepared from the stock solutions. Test solutions were prepared containing Formula One, the individual active ingredients, and mixtures of Formula One with each of the active ingredients. The test solution for Formula One was prepared by adding 500 μL of the stock solution to a 25 mL glass vial, then adding 500 μL of a 9:1 mixture of acetone: water. The individual active ingredients were prepared by adding 500 μL of stock solution to a 25 mL glass vial, then adding 500 μL of a 9:1 mixture of acetone: water. The test solutions containing mixtures of Formula One and the individual active ingredients were prepared by adding 500 μL of the active ingredient stock solution to a 25 mL glass vial, followed by 500 μL of the Formula One stock solution, creating a test solution containing 4000 ppm Formula One and 0.4% (w/v) of the active ingredient. Each test solution was serially diluted to create desired doses of test solutions (0.4% (w/v), 0.04% (w/v), 0.004% (w/v), 0.0004% (w/v), 0.00004% (w/v), and 0.000004% (w/v)). In test solutions containing mixtures of Formula One and the active ingredients, the active ingredients were diluted as described above, but the Concentration of Formula One was held constant (0.4% (w/v)). The highest dose test solution (0.4% (w/v)) was discarded, leaving 5 test solution concentrations used in the test.
The test solutions were tested against BAW and DBM using the following procedure: An artificial lepidopteran diet (Multispecies Lepidopteran Diet, Southland Products) was distributed in 128-cell bioassay trays (Frontier Agricultural Sciences™). 50 μL of test solution was pipetted into a cell in the bioassay tray. (The test solution doses of 0.04% (w/v), 0.004% (w/v), 0.0004% (w/v), 0.00004% (w/v), and 0.000004% (w/v) translated to concentrations of 5, 0.5, 0.05, 0.005, and 0.0005 ug/cm^2 on the diet, respectively.) A reference treatment (solvent check) was treated with the diluent only. […] After 5 days, the number of live larvae were recorded from each cell and percent control was measured using Abbott's correction formula (W. S. Abbott, J. Econ. Entomol. 18 (1925), pp. 265-267) as follows:
where X=No. of live larvae on solvent check and Y=No. of live larvae on treated diet. In Table B6 the “Expected % Control” was calculated using the method described in Colby S. R., Weeds, 1967, 15, 20-22. […]

CCN(C(=O)CCS(C)(=O)=O)c1sc(-c2cccnc2)nc1Cl [Formula F1, N-(4-chloro-2-(pyridin-3-yl)thiazol-5-yl)-N-ethyl-3-(methylsulfonyl)propanamide]
Average % Control F1 ([1]; Acute mortality): 6.82% | Average % Control F1 ([1]; Feeding damage control): 8.53% | Average % Control F1 ([2]; F1 alone 10 (10^-5) Wt %): 0.00% | Average % Control F1 ([2]; Feeding damage control, F1 alone 20 (10^-5) Wt %): 17.64% | Average % Control F1 [3]: 0%
